# Legend:
# Assay in all cases: Cell proliferation inhibition assay (ATP, CellTiter-Glo)
# Format in all cases: cell-based
# LNCaP cells = settings: Homo sapiens, 120 h, 5 days, 4.5% FBS, read-out: Effect on cell killing (IC50)
# Experimental: (§1) In this experiment, the content of ATP in the cells was detected, and the inhibitory effect of the PSMA ADC on the proliferation of cells (ATCC, LNCaP/CRL-1740, 22Rv1/CRL-2505 and PC-3/CRL-1435) was evaluated according to the IC50 values.
# LNCaP cells were cultured in an RPMI-1640 medium containing 10% FBS, and passaged 2-3 times a week in a passage ratio of 1:3 or 1:6. During passaging, the medium was removed by pipetting, and the cell layer was rinsed with 5 mL of 0.25% pancreatin. Then the pancreatin was removed by pipetting, the cells were digested in an incubator for 3-5 min, and then a fresh medium was added to resuspend cells. To a 96-well culture plate were added 180 μL of cell suspension at a density of 2×10^3 cells/well and an RPMI-1640 medium containing 4.5% FBS, and to the periphery of the 96-well plate was only added the medium. The plate was incubated in an incubator for 24 h (37° C., 5% CO2).
# Then 20 μL of the dilution was added to the above cell plate, and incubated in an incubator (37° C., 5% CO2) for 5 days. […] The chemiluminescence signal values were read on Victor3, and the data were processed using GraphPad software.
# 22Rv1 cells = settings: Homo sapiens, 120 h; 22RV1, 5 days, 4.5% FBS; read-out: Effect on cell killing (IC50)
# Experimental: as §1
# (§2) Then 20 μL of the dilution was added to the above cell plate, and incubated in an incubator (37° C., 5% CO2) for 5 days. The compound 2-B (i.e., free toxin of 9-A) was diluted into a stock solution with DSMO, which was then prepared into an initial concentration of 200 μM with PBS, and diluted in a gradient dilution ratio of 1:6 with PBS to obtain 9 concentration points, and an additional 0 concentration point was set. Then 1 μL of the dilution was added to 20 μL of RPMI-1640, and the mixture was transferred to a 96-well culture plate, and incubated in an incubator (37° C., 5% CO2) for 5 days. In the 96-well culture plate, 80 μL of CellTiter-Glo reagent was added to each well, and the plate was incubated at room temperature for 10-15 min away from the light. The chemiluminescence signal values were read on Victor3, and the data were processed using GraphPad software.
# 22Rv1 cells were cultured in an RPMI-1640 medium containing 10% FBS, and passaged twice a week in a passage ratio of 1:3 or 1:6. During passaging, the medium was removed by pipetting, and the cell layer was rinsed with 5 mL of 0.25% pancreatin. […]
# PC-3 cells = settings: Homo sapiens, 120 h; PC-3, 5 days, 4.5% FBS; read-out: Effect on cell killing (IC50)
# Experimental: as §1, §2
# PC-3 cells were cultured in an F-12K medium containing 10% FBS, and passaged 2-3 times a week in a passage ratio of 1:3 or 1:6. During passaging, the medium was removed by pipetting, and the cell layer was rinsed with 5 mL of 0.25% pancreatin. […]
structure (smiles),measurement,setting,value
"CC[C@@]1(O)C(=O)OCc2c1cc1n(c2=O)Cc2c-1nc1cc(F)c(C)c3c1c2[C@@H](NC(=O)[C@H](O)C1CC1)CC3 [Compound 2-B, (R)-2-cyclopropyl-N-((1S,9S)-9-ethyl-5-fluoro-9-hydroxy-4-methyl-10,13-dioxo-2,3,9,10,13,15-hexahydro-1H,12H-benzo[de]pyrano[3′,4′:6,7]indolizino[1,2-b]quinolin-1-yl)-2-hydroxyacetamide]",IC50,LNCaP cells,1.7 nM
same,IC50,22Rv1 cells,2.84 nM
same,IC50,PC-3 cells,8.33 nM
